Results published in patent publication US12559464B2, “Quinazolinone dione compounds and uses thereof” (Edgewise Therapeutics, Inc., priority 2023, dated 2026).

Columns and labels:
[1] = test system: myosin ATPase, Rabbit Psoas myofibrils; assay: Myofibril ATPase assay, rabbit psoas (skeletal) myofibrils; type: biochemical; settings: concentration required to reduce myosin ATP-ase activity by 25%; Rabbit Psoas Prep pCa 25 GEOM_MEAN
Protocol: [Worded in the source for another species; this species is reported under the same test.] (§1) Myofibril ATPase assays are known in the art to be useful in evaluating small molecules for the treatment of HCM and other cardiac indications. Myosin ATPase activity is assessed by using a coupled reaction system, in which ADP generated by the myosin ATPase function is coupled to the disappearance of NADH through the pyruvate kinase/lactate dehydrogenase (PK-LDH) system. ATPase activity produces ADP, which is used as a substrate for PK to produce pyruvate and regenerate ATP. The pyruvate is then used as a substrate by LDH to oxidize NADH to NAD+. The rate of the reaction is monitored through the time-dependent disappearance of NADH using absorbance at 340 nm, which, when the couple system is in stoichiometric excess, is directly correlated to the ATPase activity of the myosin. Inhibition of ATPase activity by the assayed compounds is indicated by a reduced rate of NADH loss, relative to vehicle-treated controls, over the experimental time window. Porcine Ventricle are the primary sources of myofibril material.
(§2) Materials: The following stock solutions and reagents were used in the Myofibril ATPase Assay: Stock Solutions; PIPES, 200 mM and 120 mM in H2O, pH 7.0; MgCl2 in H2O, 200 mM; PM12 Buffer, 10×: 120 mM PIPES (from 200 mM stock), 20 mM MgCl2 (from 200 mM stock); PBS Buffer, 1X: 135 mM NaCl, […], 10 mM Na(PO4)2, 1.8 mM K2(PO4), pH 7.4; EGTA in H2O, 250 mM; CaCl2) in H2O, 500 mM; DTT in H2O, 1 M; BSA in H2O, 10 mg/mL; ATP in 1×PBS, 50 mM; NADH in 1X PM12 and 1 mM DTT, 26 mM; PEP in 1X PM12, 78 mM, pH 7.0.
(§3) Stock Solutions of pCa buffer. Combine PIPES, CaCl2, and EGTA solutions with water. Adjust pH to 7.0 and bring final volume to 100 mL.
(§4) Buffer A & Buffer B. Prepare buffers A and B according to the table below.
(§5) Myofibril ATPase Assay Procedure: BSA, ATP, NADH, PEP, and DTT solutions were thawed at room temperature, then transferred to ice. Pellet-frozen myofibrils were transferred with approximately twice the required volume into a sufficiently large tube and capped. Myofibrils were thawed by rolling in a water bath for approximately 15 min at room temperature and cooled on ice. Buffers A and B were prepared by adjusting volumes as necessary for required number of wells and stored on ice. 0.5 μL of the compounds to be assayed were added into wells. 25 μL of Buffer A was dispensed into the wells, followed by 25 μL of Buffer B. The wells were measured for absorbance at 340 nm, using a kinetic protocol in which the wells are read every 1.5-2 min for 75 min. Assay data analysis was performed using a python script that filtered the raw data to retain those points falling between a starting and ending time and between a maximum and minimum absorbance, then used the filtered time-domain 340 nm absorbance data in each well to calculate a slope via linear regression analysis in units of mAU/min. Compound slopes were normalized between 100% and 0% activity, where 100% represented the slope of wells containing only compound vehicle, and fit to a 4-parameter logistic model. In addition to the fit parameters, the EC25% values were calculated, relative to the 100% normalized value. Additionally, the Y125 values were calculated for compounds that increased myosin ATP-ase activity. Fit parameters, calculated effective concentrations, filtered raw data, and calculated slopes were exported, in addition to compound-specific graphs of normalized ATPase activity versus concentration in μM. Each value reported in Table 8 is either a Y75 value or a Y125 value. Values without pound sign, #, are Y75 values, which reflect the concentration required to reduce myosin ATP-ase activity by 25% (e.g., Y-axis activity value is 75% of initial value), relative to myosin ATP-ase activity in the absence of exogenous compound. […]

[2] = test system: myosin ATPase, Porcine Atria myofibrils; assay: Myofibril ATPase assay, porcine atria myofibrils; type: biochemical; settings: concentration required to reduce myosin ATP-ase activity by 25%; Porcine Atria Prep pCa 25 GEOM_MEAN
[3] = target: T1, myosin ATPase, Porcine Ventricle myofibrils (Sus scrofa, UniProt P79293); assay: Myofibril ATPase assay, porcine ventricle myofibrils; type: biochemical, porcine (Yucatan minipigs); settings: concentration required to reduce myosin ATP-ase activity by 25%; Porcine Ventricle Prep pCa 25 GEOM_MEAN
T1 construct: Myofibrils from porcine cardiac muscle was isolated from the left ventricle of Yucatan minipigs; tissue Exemplar Genetics; host or cells: left ventricle of Yucatan minipigs, myofibrils
Protocol: as §1, §2, §3, §4, §5

T1 sequence (P79293 whole entry): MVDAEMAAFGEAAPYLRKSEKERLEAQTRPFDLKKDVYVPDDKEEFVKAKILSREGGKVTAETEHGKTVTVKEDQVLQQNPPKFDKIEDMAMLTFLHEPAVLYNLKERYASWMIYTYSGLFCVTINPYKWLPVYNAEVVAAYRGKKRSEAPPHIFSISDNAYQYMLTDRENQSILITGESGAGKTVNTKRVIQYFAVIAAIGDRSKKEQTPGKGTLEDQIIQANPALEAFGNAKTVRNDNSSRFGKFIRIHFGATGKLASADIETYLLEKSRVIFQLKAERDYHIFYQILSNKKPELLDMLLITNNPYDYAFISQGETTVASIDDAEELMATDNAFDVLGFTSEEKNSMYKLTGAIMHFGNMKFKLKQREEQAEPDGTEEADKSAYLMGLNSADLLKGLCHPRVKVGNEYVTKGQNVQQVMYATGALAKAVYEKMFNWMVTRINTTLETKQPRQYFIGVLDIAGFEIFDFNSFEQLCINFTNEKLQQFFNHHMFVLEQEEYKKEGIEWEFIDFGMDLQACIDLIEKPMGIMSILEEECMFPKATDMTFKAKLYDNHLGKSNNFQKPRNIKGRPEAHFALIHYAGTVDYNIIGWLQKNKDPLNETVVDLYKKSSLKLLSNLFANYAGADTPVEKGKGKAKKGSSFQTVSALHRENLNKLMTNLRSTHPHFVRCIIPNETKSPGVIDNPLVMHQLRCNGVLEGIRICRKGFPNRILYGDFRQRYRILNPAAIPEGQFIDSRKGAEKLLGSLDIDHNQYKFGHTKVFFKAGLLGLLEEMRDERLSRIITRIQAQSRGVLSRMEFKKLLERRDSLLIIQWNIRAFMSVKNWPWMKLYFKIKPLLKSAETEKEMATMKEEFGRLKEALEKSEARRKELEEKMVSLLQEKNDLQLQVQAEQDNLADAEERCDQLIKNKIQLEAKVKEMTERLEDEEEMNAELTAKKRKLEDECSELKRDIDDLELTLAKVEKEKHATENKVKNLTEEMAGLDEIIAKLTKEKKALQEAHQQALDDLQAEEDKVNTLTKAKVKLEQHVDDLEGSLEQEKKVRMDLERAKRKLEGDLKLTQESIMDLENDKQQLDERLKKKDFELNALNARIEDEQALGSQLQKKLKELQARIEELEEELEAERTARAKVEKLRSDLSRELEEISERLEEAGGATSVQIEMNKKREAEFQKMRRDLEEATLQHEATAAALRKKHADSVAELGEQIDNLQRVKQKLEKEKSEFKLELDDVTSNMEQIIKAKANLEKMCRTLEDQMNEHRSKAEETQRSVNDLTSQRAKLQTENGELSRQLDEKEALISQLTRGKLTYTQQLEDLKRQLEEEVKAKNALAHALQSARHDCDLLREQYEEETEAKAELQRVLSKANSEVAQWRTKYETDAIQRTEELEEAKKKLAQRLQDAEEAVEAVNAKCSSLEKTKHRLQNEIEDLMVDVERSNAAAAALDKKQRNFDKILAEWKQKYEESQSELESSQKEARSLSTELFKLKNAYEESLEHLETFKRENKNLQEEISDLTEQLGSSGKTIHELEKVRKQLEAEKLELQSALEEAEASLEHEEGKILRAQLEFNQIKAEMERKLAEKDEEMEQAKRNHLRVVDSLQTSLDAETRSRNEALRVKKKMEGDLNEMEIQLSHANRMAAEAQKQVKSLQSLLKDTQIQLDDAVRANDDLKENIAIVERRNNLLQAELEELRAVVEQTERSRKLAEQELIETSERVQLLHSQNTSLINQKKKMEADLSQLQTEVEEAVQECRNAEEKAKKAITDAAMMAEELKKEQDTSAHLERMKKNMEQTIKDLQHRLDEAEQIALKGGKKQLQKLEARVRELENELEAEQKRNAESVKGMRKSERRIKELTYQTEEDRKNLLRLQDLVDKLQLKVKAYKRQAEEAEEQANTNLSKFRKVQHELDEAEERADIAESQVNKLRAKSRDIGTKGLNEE

SMILES | Rabbit Psoas EC25 (Y75 value) [1] [µM] | Porcine Atria EC25 (Y75 value) [2] [µM] | Porcine Ventricle EC25 (Y75 value) [3] [µM]
C[C@@H](NC(=O)Cn1c(=O)[nH]c2ccc(F)cc2c1=O)c1ncc(C#N)cn1 (single isomer, unassigned) [Compound 1] | 0.59 | 0.699 | 20.04
C[C@H](NC(=O)Cn1c(=O)[nH]c2ccc(F)cc2c1=O)c1ncc(C#N)cn1 (single isomer, unassigned) [Compound 2] | 86.83 | 24.53 | 100
C[C@@H](NC(=O)Cn1c(=O)[nH]c2ccc(F)c(F)c2c1=O)c1ccc(C#N)nn1 (single isomer, unassigned) [Compound 3] | 2.538 | 1.074 | 100
C[C@H](NC(=O)Cn1c(=O)[nH]c2ccc(F)c(F)c2c1=O)c1ccc(C#N)nn1 (single isomer, unassigned) [Compound 4] | 0.204 | 0.178 | 4.869
C[C@@H](NC(=O)Cn1c(=O)[nH]c2ccc(F)cc2c1=O)c1ncc(C#N)cc1F (single isomer, unassigned) [Compound 7] | 5.692 | 0.3543 | 1.467
C[C@H](NC(=O)Cn1c(=O)[nH]c2ccc(F)cc2c1=O)c1ncc(C#N)cc1F (single isomer, unassigned) [Compound 8] | 0.108 | 0.094 | 0.448
Cc1c(F)ccc2[nH]c(=O)n(CC(=O)N[C@@H]3CCc4cc(C#N)cnc43)c(=O)c12 (single isomer, unassigned) [Compound 9] | 0.631 | 0.078 | 0.547
Cc1cc(C#N)cnc1[C@@H](C)NC(=O)Cn1c(=O)[nH]c2ccc(F)c(F)c2c1=O (single isomer, unassigned) [Compound 13] | 0.043 | 0.048 | 0.119
Cc1cc(C#N)cnc1[C@H](C)NC(=O)Cn1c(=O)[nH]c2ccc(F)c(F)c2c1=O (single isomer, unassigned) [Compound 14] | 21.27 | 5.931 | 23.76
C[C@@H](NC(=O)Cn1c(=O)[nH]c2ccc(C#N)cc2c1=O)c1ncc(C#N)cc1F (single isomer, unassigned) [Compound 15] | 100 | 4.31 | 100
C[C@@H](NC(=O)Cn1c(=O)[nH]c2ccc(F)c(C#N)c2c1=O)c1ncc(C#N)cc1F (single isomer, unassigned) [Compound 3001] | – | 5.34 | 100.00
C[C@H](NC(=O)Cn1c(=O)[nH]c2ccc(F)c(C#N)c2c1=O)c1ncc(C#N)cc1F (single isomer, unassigned) [Compound 3002] | – | 0.11 | 0.24
Cc1ccc2[nH]c(=O)n(CC(=O)N[C@H](C)c3ncc(C#N)cc3F)c(=O)c2c1F (single isomer, unassigned) [Compound 3003] | – | 1.32 | 63.05
Cc1ccc2[nH]c(=O)n(CC(=O)N[C@@H](C)c3ncc(C#N)cc3F)c(=O)c2c1F (single isomer, unassigned) [Compound 3004] | – | 0.18 | 0.51
C[C@H](NC(=O)Cn1c(=O)[nH]c2ccccc2c1=O)c1cccc2ccccc12 (single isomer, unassigned) [Compound 5002] | 100 | – | –
C[C@H](NC(=O)Cn1c(=O)[nH]c2cccc(Cl)c2c1=O)c1ccc(F)cc1F [Compound 136, (S)-2-(5-chloro-2,4-dioxo-1,4-dihydroquinazolin-3(2H)-yl)-N-(1-(2,4-difluorophenyl)ethyl)acetamide] | 0.591 | – | 0.256
C[C@H](NC(=O)Cn1c(=O)[nH]c2ccccc2c1=O)c1ccc(F)cc1F [Compound 167, (S)-N-(1-(2,4-difluorophenyl)ethyl)-2-(2,4-dioxo-1,4-dihydroquinazolin-3(2H)-yl)acetamide] | 0.52 | – | 7.022
CC(NC(=O)Cn1c(=O)[nH]c2ccccc2c1=O)C1CN(C)CCO1 (centres unmarked) [Compound 5001, 2-(2,4-dioxo-1,4-dihydroquinazolin-3(2H)-yl)-N-(1-(4-methylmorpholin-2-yl)ethyl)acetamide] | 100 | – | –
CC(NC(=O)Cn1c(=O)[nH]c2ccccc2c1=O)C1CCCCC1 (centres unmarked) [Compound 5003, N-(1-cyclohexylethyl)-2-(2,4-dioxo-1,4-dihydroquinazolin-3(2H)-yl)acetamide] | 100 | – | –
O=C(Cn1c(=O)[nH]c2ccccc2c1=O)NCc1ccc(Cn2cccn2)cc1 [Compound 5004, N-(4-((1H-pyrazol-1-yl)methyl)benzyl)-2-(2,4-dioxo-1,4-dihydroquinazolin-3(2H)-yl)acetamide] | 100 | – | –
O=C(Cn1c(=O)[nH]c2ccccc2c1=O)NCc1ccccn1 [Compound 5005, 2-(2,4-dioxo-1,4-dihydroquinazolin-3(2H)-yl)-N-(pyridin-2-ylmethyl)acetamide] | 100 | – | –
O=C(Cn1c(=O)[nH]c2ccccc2c1=O)NCc1cccnc1 [Compound 5006, 2-(2,4-dioxo-1,4-dihydroquinazolin-3(2H)-yl)-N-(pyridin-3-ylmethyl)acetamide] | 100 | – | –
O=C(Cn1c(=O)[nH]c2ccccc2c1=O)NCc1ccncc1 [Compound 5007, 2-(2,4-dioxo-1,4-dihydroquinazolin-3(2H)-yl)-N-(pyridin-4-ylmethyl)acetamide] | 100 | – | –
O=C(Cn1c(=O)[nH]c2ccccc2c1=O)NCCc1ccccc1Cl [Compound 5008, N-(2-chlorophenethyl)-2-(2,4-dioxo-1,4-dihydroquinazolin-3(2H)-yl)acetamide] | 100 | – | –
